# From ChEMBL document CHEMBL1201862, “PubChem BioAssay data set” (2004)
#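 Method: 48-hour compound exposure of cells in 96-well plates, five concentrations, linear interpolation of endpoints. The concentration for 50% growth inhibition is given as GI50.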 Active and inactive are the calls of the source. Cut-off read from the data, not from the text of the source: active = GI50 up to about 1.1 µM and inactive = higher.
# Columns and labels:
# Test in all cases: growth of human tumour cells (NCI), 48 h
# OVCAR-8 = test system: OVCAR-8
# HCT-15 = test system: HCT-15
# MOLT-4 = test system: MOLT-4
# HCC 2998 = test system: HCC 2998
# LOX IMVI = test system: LOX IMVI
# SK-OV-3 = test system: SK-OV-3
# SK-MEL-28 = test system: SK-MEL-28
# SF-539 = test system: SF-539
# CCRF-CEM = test system: CCRF-CEM
# 786-0 = test system: 786-0
# OVCAR-5 = test system: OVCAR-5
# HCT-116 = test system: HCT-116
# SR = test system: SR
# HOP-92 = test system: HOP-92
# DU-145 = test system: DU-145
# MDA-MB-435 = test system: MDA-MB-435
# MCF7 = test system: MCF7
# NCI/ADR-RES = test system: NCI/ADR-RES
# PC-3 = test system: PC-3
Structure (SMILES),GI50 (OVCAR-8),GI50 (HCT-15),GI50 (MOLT-4),GI50 (HCC 2998),GI50 (LOX IMVI),GI50 (SK-OV-3),GI50 (SK-MEL-28),GI50 (SF-539),GI50 (CCRF-CEM),GI50 (786-0),GI50 (OVCAR-5),GI50 (HCT-116),GI50 (SR),GI50 (HOP-92),GI50 (DU-145),GI50 (MDA-MB-435),GI50 (MCF7),GI50 (NCI/ADR-RES),GI50 (PC-3)
CC(=O)c1c(C)[n+]([O-])c2cc(C)c(C)cc2[n+]1[O-],> 100 µM (inactive),> 100 µM,> 100 µM (inactive),> 100 µM (inactive),> 100 µM (inactive),> 100 µM (inactive),> 100 µM (inactive),> 100 µM (inactive),> 100 µM (inactive),> 100 µM (inactive),> 100 µM (inactive),,,,,,,,
COc1ccc(OC)c(CCc2cc(OC)c(OC)cc2C)c1,48.5 µM (inactive),,12.1 µM (inactive),27.5 µM (inactive),,23 µM (inactive),9.38 µM (inactive),,11 µM (inactive),38.7 µM (inactive),> 100 µM (inactive),,,,,,,,
Nc1nc2c(ncn2CCOC(c2ccccc2)P(=O)(O)O)c(=O)[nH]1 (stereo unspecified),> 100 µM (inactive),> 100 µM,,> 100 µM (inactive),> 100 µM (inactive),> 100 µM (inactive),> 100 µM (inactive),> 100 µM (inactive),,> 100 µM (inactive),> 100 µM (inactive),> 100 µM (inactive),> 100 µM (inactive),,,,,,
COC(=O)C(=O)C(/C(=N/N)C(=O)Nc1ccccc1C(N)=O)c1nc2ccc([N+](=O)[O-])cc2nc1O (stereo unspecified),> 100 µM (inactive),> 100 µM,> 100 µM (inactive),> 100 µM (inactive),> 100 µM (inactive),,> 100 µM (inactive),> 100 µM (inactive),> 100 µM (inactive),> 100 µM (inactive),> 100 µM (inactive),> 100 µM (inactive),> 100 µM (inactive),,,,,,
O=C1OCc2nc3c(c(-c4ccccc4C(F)(F)F)c21)C(=O)OC3,> 100 µM (inactive),> 100 µM,> 100 µM (inactive),> 100 µM (inactive),> 100 µM (inactive),> 100 µM (inactive),> 100 µM (inactive),> 100 µM (inactive),> 100 µM (inactive),> 100 µM (inactive),> 100 µM (inactive),> 100 µM (inactive),> 100 µM (inactive),> 100 µM (inactive),,,,,
COc1ccccc1C1C(C(=O)Nc2ccccc2)=C(C)NC(C)=C1C(=O)Nc1ccccc1,> 100 µM (inactive),54 µM,7.45 µM (inactive),> 100 µM (inactive),83.2 µM (inactive),> 100 µM (inactive),> 100 µM (inactive),36.1 µM (inactive),,> 100 µM (inactive),91 µM (inactive),65.8 µM (inactive),,44.2 µM (inactive),,,,,
S=c1[nH]c(=S)c2nnn(-c3ccccc3)c2[nH]1,> 100 µM (inactive),> 100 µM,> 100 µM (inactive),> 100 µM (inactive),> 100 µM (inactive),> 100 µM (inactive),> 100 µM (inactive),> 100 µM (inactive),> 100 µM (inactive),> 100 µM (inactive),> 100 µM (inactive),0.0836 µM (active),> 100 µM (inactive),> 100 µM (inactive),,,,,
NC(=O)NNC(=O)CCn1[nH]c(=O)c(Cl)c(Cl)c1=O,> 100 µM (inactive),> 100 µM,,> 100 µM (inactive),> 100 µM (inactive),> 100 µM (inactive),> 100 µM (inactive),,> 100 µM (inactive),> 100 µM (inactive),> 100 µM (inactive),> 100 µM (inactive),,> 100 µM (inactive),,,,,
COc1ccc(C2=Nc3ccccc3SC(C)C2)cc1 (stereo unspecified),> 100 µM (inactive),> 100 µM,49.8 µM (inactive),> 100 µM (inactive),38.4 µM (inactive),> 100 µM (inactive),> 100 µM (inactive),> 100 µM (inactive),33.4 µM (inactive),> 100 µM (inactive),> 100 µM (inactive),18 µM (inactive),,> 100 µM (inactive),,,,,
O=c1[nH]c2nc3ccccc3c(=O)n2nc1Cc1ccccc1,> 100 µM (inactive),> 100 µM,> 100 µM (inactive),> 100 µM (inactive),> 100 µM (inactive),84.7 µM (inactive),> 100 µM (inactive),> 100 µM (inactive),> 100 µM (inactive),> 100 µM (inactive),> 100 µM (inactive),> 100 µM (inactive),> 100 µM (inactive),,,,,,
N#Cc1cccc(C2SCc3nc4ccccc4n32)c1 (stereo unspecified),> 100 µM (inactive),,38.7 µM (inactive),,> 100 µM (inactive),> 100 µM (inactive),> 100 µM (inactive),> 100 µM (inactive),> 100 µM (inactive),> 100 µM (inactive),48 µM (inactive),,38.4 µM (inactive),36.3 µM (inactive),,,,,
COc1ccc(-c2c(C(C)=O)c(-c3ccccc3)n(C3OC(COC(C)=O)C(OC(C)=O)C(OC(C)=O)C3OC(C)=O)c(=S)c2C#N)cc1 (stereo unspecified),> 100 µM (inactive),> 100 µM,> 100 µM (inactive),> 100 µM (inactive),> 100 µM (inactive),> 100 µM (inactive),> 100 µM (inactive),> 100 µM (inactive),> 100 µM (inactive),> 100 µM (inactive),> 100 µM (inactive),> 100 µM (inactive),> 100 µM (inactive),19.2 µM (inactive),> 100 µM (inactive),> 100 µM (inactive),> 100 µM (inactive),> 100 µM (inactive),
O=C(NCc1ccccc1)c1cc2ccc(O)c(O)c2cn1,11.2 µM (inactive),26.7 µM,,> 100 µM (inactive),3.82 µM (inactive),> 100 µM (inactive),16.4 µM (inactive),18.2 µM (inactive),32.1 µM (inactive),18 µM (inactive),26 µM (inactive),17.7 µM (inactive),32.6 µM (inactive),19.1 µM (inactive),,,,,
CCc1cccc(C)c1NC(=O)C1=C(C)NC(C)=C(C(=O)Nc2c(C)cccc2CC)C1c1ccc2c(c1)OCO2,29.6 µM (inactive),,21.2 µM (inactive),19.7 µM (inactive),18.3 µM (inactive),48.9 µM (inactive),15.6 µM (inactive),19.7 µM (inactive),18.8 µM (inactive),16.7 µM (inactive),22 µM (inactive),,,18.2 µM (inactive),,,,,
O=C(NCc1ccccc1)C1C(=O)C(=O)N(Cc2ccccc2)C1=O (stereo unspecified),> 100 µM (inactive),> 100 µM,> 100 µM (inactive),> 100 µM (inactive),> 100 µM (inactive),> 100 µM (inactive),> 100 µM (inactive),> 100 µM (inactive),> 100 µM (inactive),> 100 µM (inactive),> 100 µM (inactive),> 100 µM (inactive),> 100 µM (inactive),> 100 µM (inactive),,,,,
CCOc1ccccc1NC(=O)CC1C(=O)Nc2ccccc2[S+]1[O-] (stereo unspecified),43.2 µM (inactive),> 100 µM,10.5 µM (inactive),> 100 µM (inactive),> 100 µM (inactive),,> 100 µM (inactive),> 100 µM (inactive),39.8 µM (inactive),63.1 µM (inactive),> 100 µM (inactive),> 100 µM (inactive),16.5 µM (inactive),43.1 µM (inactive),,,,,
CCCCNC1CCCCC[C@H]1O (stereo partly specified),> 100 µM (inactive),,> 100 µM (inactive),> 100 µM (inactive),> 100 µM (inactive),> 100 µM (inactive),> 100 µM (inactive),> 100 µM (inactive),> 100 µM (inactive),> 100 µM (inactive),> 100 µM (inactive),> 100 µM (inactive),> 100 µM (inactive),> 100 µM (inactive),,,,,
C/C(=C\C(C)COCc1ccccc1)[C@H](COCc1ccccc1)OCc1ccccc1 (stereo partly specified),> 100 µM (inactive),> 100 µM,46.9 µM (inactive),> 100 µM (inactive),24.2 µM (inactive),> 100 µM (inactive),> 100 µM (inactive),> 100 µM (inactive),68.1 µM (inactive),> 100 µM (inactive),> 100 µM (inactive),85.1 µM (inactive),,10.4 µM (inactive),,,,,
CCC1C(=O)OCc2c1cc1n(c2=O)Cc2ccccc2-1 (stereo unspecified),> 100 µM (inactive),> 100 µM,> 100 µM (inactive),> 100 µM (inactive),> 100 µM (inactive),,> 100 µM (inactive),> 100 µM (inactive),> 100 µM (inactive),> 100 µM (inactive),> 100 µM (inactive),> 100 µM (inactive),> 100 µM (inactive),> 100 µM (inactive),,,,,
CCCCCCCCCCCC[N+]12CC[N+](C)(CC1)CC2,> 100 µM (inactive),,27.9 µM (inactive),8.09 µM (inactive),19.4 µM (inactive),> 100 µM (inactive),> 100 µM (inactive),39.4 µM (inactive),18.8 µM (inactive),13 µM (inactive),17.1 µM (inactive),38.7 µM (inactive),6.18 µM (inactive),14.9 µM (inactive),,,,,
CC1=C(/C=C/C(C)=C/C=C/C(C)=C/CO)C(C)(C)CCC1 [RETINOL],,30.6 µM,18 µM (inactive),17.3 µM (inactive),24.6 µM (inactive),35.2 µM (inactive),25.5 µM (inactive),14.1 µM (inactive),22.3 µM (inactive),17.2 µM (inactive),24.9 µM (inactive),,18.1 µM (inactive),,38.3 µM (inactive),22.1 µM (inactive),,19.5 µM (inactive),38.9 µM (inactive)
